Among the test systems are SN12C renal; SK-MEL-5 melanoma; HOP-92 NSCLC; M14 melanoma; SF-268 CNS; EKVX NSCLC; NCI-H226 lung; OVCAR-3 ovarian; NCI-H460 lung.
Common to all, as to experiment: inhibition of tumour cell growth, NCI panel, 48 h

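48-hour exposure; five concentrations; linearly interpolated endpoints. GI50: concentration for 50% inhibition of growth. TGI denotes the concentration required for complete inhibition of growth.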 Bounds are passed on as bounds.

Regarding `N/C(=C\c1ccc(OCc2ccccc2)c(OCc2ccccc2)c1[N+](=O)[O-])C(=O)O`, the TGI in the assay on SN12C renal, with SK-MEL-5 melanoma, in the assay on HOP-92 NSCLC, in the assay with M14 melanoma, with SF-268 CNS and in the assay with EKVX NSCLC was greater than 100 µM in each case. Further, the TGI in the assay with NCI-H226 lung and in the assay with OVCAR-3 ovarian was greater than 100 µM throughout.
In the case of `Cc1ccccc1C(=O)c1ccccc1O`, the TGI in the assay on SN12C renal, in the assay with SK-MEL-5 melanoma, in the assay on HOP-92 NSCLC, in the assay with NCI-H460 lung, in the assay on M14 melanoma and in the assay with SF-268 CNS was greater than 100 µM each time. The TGI in the assay on EKVX NSCLC, with NCI-H226 lung and in the assay with OVCAR-3 ovarian was greater than 100 µM throughout.
On to `CCC1(c2c(F)c(F)c(N)c(F)c2F)CCC(=O)NC1=O` (stereo unspecified), for which the TGI with SK-MEL-5 melanoma, in the assay on HOP-92 NSCLC, with NCI-H460 lung, with M14 melanoma, with SF-268 CNS and in the assay on EKVX NSCLC was greater than 100 µM in each case. In addition, the TGI with NCI-H226 lung and in the assay on OVCAR-3 ovarian was greater than 100 µM each time.
Take `C[S+](C)CCOC(=O)C(=[N+]=[N-])c1ccc([N+](=O)[O-])cc1`: the TGI with SN12C renal, with SK-MEL-5 melanoma, with NCI-H460 lung, with M14 melanoma, with SF-268 CNS and in the assay with EKVX NSCLC was greater than 100 µM each time. Further, the TGI with NCI-H226 lung and in the assay on OVCAR-3 ovarian was greater than 100 µM each time.
As to `CC1(CO)OC(n2cc(C(=O)NC(=O)OCc3ccccc3)c(=O)[nH]c2=O)CC1O` (stereo unspecified), the TGI in the assay on SN12C renal, in the assay with SK-MEL-5 melanoma, in the assay on HOP-92 NSCLC, in the assay with NCI-H460 lung, with M14 melanoma and in the assay with SF-268 CNS was greater than 100 µM each time. Moreover, the TGI in the assay on NCI-H226 lung and in the assay with OVCAR-3 ovarian was greater than 100 µM in each case.
For the compound `N#Cc1c(NN)nc(NN)c(C#N)c1-c1ccccc1`, the TGI in the assay on SN12C renal, in the assay with SK-MEL-5 melanoma, in the assay with HOP-92 NSCLC, in the assay with NCI-H460 lung, with M14 melanoma and in the assay with SF-268 CNS was greater than 100 µM each time. Also, the TGI in the assay on EKVX NSCLC, in the assay with NCI-H226 lung and in the assay on OVCAR-3 ovarian was greater than 100 µM each time.
On to `O=C1c2cc3c(cc2-c2c1c1ccc(Cl)cc1c(=O)n2CCCNCCO)OCO3`, for which the GI50 with SN12C renal is 1.08 µM; in the assay on SK-MEL-5 melanoma, 0.387 µM; with HOP-92 NSCLC, 1.08 µM; in the assay on NCI-H460 lung, 0.0342 µM; in the assay on M14 melanoma, 0.0574 µM; in the assay on SF-268 CNS it was 0.0668 µM. In addition, the values for the GI50 in the assay on EKVX NSCLC, with NCI-H226 lung and with OVCAR-3 ovarian were 1.63 µM, 0.052 µM and 1.32 µM, respectively. Further, the TGI was 2.81 µM in the assay on SN12C renal; 1.58 µM in the assay on SK-MEL-5 melanoma; 2.57 µM in the assay with HOP-92 NSCLC; 1.34 µM in the assay with NCI-H460 lung; 1.67 µM in the assay on M14 melanoma; 2.13 µM with SF-268 CNS. The results for the TGI in the assay on EKVX NSCLC, in the assay with NCI-H226 lung and in the assay with OVCAR-3 ovarian were 3.42 µM, 1.55 µM and 2.83 µM, respectively.
As for `CCCCCCCCCCCCCC(=O)CC(=O)c1c(O)cccc1O`, the TGI in the assay on SN12C renal was greater than 100 µM; in the assay on SK-MEL-5 melanoma, greater than 100 µM; in the assay on HOP-92 NSCLC it was 89.7 µM; with NCI-H460 lung, 91.9 µM; in the assay on M14 melanoma it was greater than 100 µM; with SF-268 CNS, greater than 100 µM. For the same compound, the TGI in the assay with EKVX NSCLC was found to be 68.8 µM; in the assay with NCI-H226 lung it was 80.3 µM; in the assay with OVCAR-3 ovarian, 37.3 µM.
For `O=C1C(Cl)=C(Nc2cccc(Cl)c2)C(=O)N1Cc1ccccc1Cl`, the GI50 with SN12C renal was 2.32 µM; in the assay on SK-MEL-5 melanoma it was 3.37 µM; with HOP-92 NSCLC, 8.28 µM; with NCI-H460 lung, 11.8 µM; in the assay on M14 melanoma it was 4.41 µM; with SF-268 CNS it was 13.1 µM. The GI50 in the assay on EKVX NSCLC was 20.2 µM; in the assay on NCI-H226 lung it was 0.296 µM; in the assay with OVCAR-3 ovarian, 2.14 µM. The TGI in the assay with SN12C renal was 8 µM; in the assay on SK-MEL-5 melanoma, 14.3 µM; in the assay with HOP-92 NSCLC, 32.4 µM; with NCI-H460 lung, 27 µM; with M14 melanoma, 19.4 µM; in the assay with SF-268 CNS, 36 µM. Moreover, the TGI in the assay with EKVX NSCLC came to 50.9 µM; in the assay with NCI-H226 lung, 2.9 µM; in the assay on OVCAR-3 ovarian it was 16.1 µM.
With `Cn1c(=O)nc2n(-c3cccc(Br)c3)c3ccccc3nc-2c1=O`, the TGI in the assay on SN12C renal was 17.1 µM; in the assay with SK-MEL-5 melanoma it was 3.41 µM; in the assay with NCI-H460 lung, 12.2 µM; in the assay with M14 melanoma it was 10.1 µM; in the assay on SF-268 CNS, 23.4 µM; with EKVX NSCLC, 13.3 µM. The TGI with NCI-H226 lung is 22.2 µM; with OVCAR-3 ovarian, 5.94 µM.
Turning to `CC1(c2cccc3ccccc23)OC(=O)c2ccccc21` (stereo unspecified), the TGI in the assay on SN12C renal was 67.8 µM; in the assay on SK-MEL-5 melanoma it was 26.2 µM; with HOP-92 NSCLC, 36.5 µM; with NCI-H460 lung it was 52.8 µM; in the assay with M14 melanoma, 37.2 µM; in the assay on SF-268 CNS it was 93 µM. Moreover, the TGI in the assay on EKVX NSCLC was greater than 100 µM; in the assay with NCI-H226 lung it was 48.3 µM; in the assay on OVCAR-3 ovarian, 58.1 µM.
For the compound `COC(=O)C(=O)OC1(C(C)=O)CC2(c3ccccc3)OC1(c1ccccc1)c1ccccc12` (stereo unspecified), the TGI in the assay with SN12C renal stood at 28.6 µM; in the assay with SK-MEL-5 melanoma it was 28.8 µM; in the assay on HOP-92 NSCLC, 27 µM; with NCI-H460 lung it was 36.2 µM; with M14 melanoma, 31.9 µM; with SF-268 CNS it was 44 µM. In addition, the TGI in the assay on EKVX NSCLC is 42 µM; with NCI-H226 lung, 31.7 µM; with OVCAR-3 ovarian, 27.9 µM.
Regarding `Oc1ccccc1C=NCc1ccco1`, the TGI in the assay on SN12C renal, with NCI-H460 lung, in the assay with M14 melanoma, in the assay with SF-268 CNS, in the assay with EKVX NSCLC and with NCI-H226 lung was greater than 100 µM throughout. Besides, the TGI in the assay on OVCAR-3 ovarian is greater than 100 µM.
In the case of `O=C(CC1(O)C(=O)Nc2c(Cl)ccc(Cl)c21)c1ccc2ccccc2c1` (stereo unspecified), the TGI in the assay on SN12C renal worked out at 31.3 µM; with SK-MEL-5 melanoma, 17.7 µM; in the assay on NCI-H460 lung it was 25.5 µM; in the assay with M14 melanoma it was 21.3 µM; in the assay with SF-268 CNS it was 36.2 µM; with EKVX NSCLC it was 31 µM. For the same compound, the TGI in the assay with NCI-H226 lung worked out at 39.1 µM; in the assay on OVCAR-3 ovarian, 14.3 µM.
